Experimental data published in ChEMBL document CHEMBL1287719, “N⁶-Alkyladenosines: Synthesis and evaluation of in vitro anticancer activity” (Bioorg Med Chem, 2010).
Active and inactive are the calls of the source. The calls are words filed in the database; no cut-off is given here.

Assays:
[1] = system: MDA-MB-231; test: Cytotoxicity against human MDA-MB-231 cells at 10 uM after 72 hrs by MTT assay; format: functional, cell-based
[2] = system: T-24; test: Inhibition of human T24 cell migration by wound healing assay; format: functional, cell-based
[3] = system: T-24; test: Inhibition of human T24 cells invasion on Matrigel after 24 hrs; format: functional, cell-based
[4] = system: T-24; test: Growth inhibition of human T24 cells assessed as reduction of cell count after trypsinization at 10 uM after 72 hrs by MTT assay; format: functional, cell-based
[5] = system: T-24; test: Cytotoxicity against human T24 cells at 10 uM after 72 hrs by MTT assay; format: functional, cell-based
[6] = target: Matrix metalloproteinase-9 (Homo sapiens) (UniProt P14780); test: Induction of MMP9 activity in human T24 cells after 1 hr by zymography; format: cell-based; settings: T-24
[7] = system: T-24; test: Cytotoxicity against human T24 cells assessed as inhibition of clones formation at 10 uM after 1 week by clonogenic assay; format: functional, cell-based
[8] = system: Caco-2; test: Cytotoxicity against human Caco-2 cells at 10 uM after 72 hrs by MTT assay; format: functional, cell-based
[9] = system: J82; test: Cytotoxicity against human J82 cells at 10 uM after 72 hrs by MTT assay; format: functional, cell-based

Matrix metalloproteinase-9 (Homo sapiens), sequence (P14780 whole entry): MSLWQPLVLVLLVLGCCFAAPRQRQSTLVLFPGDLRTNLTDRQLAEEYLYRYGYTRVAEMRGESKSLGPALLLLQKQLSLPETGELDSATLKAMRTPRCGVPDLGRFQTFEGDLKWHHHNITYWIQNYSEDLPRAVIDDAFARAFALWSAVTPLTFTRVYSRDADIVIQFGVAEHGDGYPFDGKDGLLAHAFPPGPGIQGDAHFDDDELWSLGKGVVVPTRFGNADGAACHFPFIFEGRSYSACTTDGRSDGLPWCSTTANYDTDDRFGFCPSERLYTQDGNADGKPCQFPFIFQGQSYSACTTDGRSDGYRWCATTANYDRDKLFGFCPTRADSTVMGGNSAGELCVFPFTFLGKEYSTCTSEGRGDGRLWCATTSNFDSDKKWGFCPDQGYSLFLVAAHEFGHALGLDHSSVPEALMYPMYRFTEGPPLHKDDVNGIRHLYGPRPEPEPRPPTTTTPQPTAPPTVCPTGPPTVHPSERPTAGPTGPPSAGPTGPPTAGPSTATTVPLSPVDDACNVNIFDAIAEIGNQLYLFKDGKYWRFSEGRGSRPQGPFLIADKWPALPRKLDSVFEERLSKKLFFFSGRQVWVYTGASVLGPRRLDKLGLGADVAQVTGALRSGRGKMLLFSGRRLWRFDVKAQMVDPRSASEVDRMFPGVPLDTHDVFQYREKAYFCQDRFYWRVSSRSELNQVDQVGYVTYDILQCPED

| SMILES | Activity [1] | Activity [2] | inhibition [3] | Activity [4] | Activity [5] | Activity [6] | Activity [7] | Activity [8] | Activity [9] |
| --- | --- | --- | --- | --- | --- | --- | --- | --- | --- |
| CC(C)CCNc1ncnc2c1ncn2[C@@H]1O[C@H](CO)[C@@H](O)[C@H]1O | Active | inactive | inactive | Active | Active | inactive | Active | Active | Active |
| OC[C@H]1O[C@@H](n2cnc3c(NCC4CCC4)ncnc32)[C@H](O)[C@@H]1O | Active | inactive | inactive | Active | Active | inactive | Active | Active | Active |
| OC[C@H]1O[C@@H](n2cnc3c(NCc4ccccc4)ncnc32)[C@H](O)[C@@H]1O | Active | inactive | inactive | Active | Active | inactive | Active | Active | Active |
| CCCCNc1ncnc2c1ncn2[C@@H]1O[C@H](CO)[C@@H](O)[C@H]1O | Active | inactive | inactive | Active | Active | inactive | Active | Active | Active |
| C=CCNc1ncnc2c1ncn2[C@@H]1O[C@H](CO)[C@@H](O)[C@H]1O | Active | inactive | inactive | Active | Active | inactive | Active | Active | Active |
